# Laboratory results from patent publication US11377466B2, “Analogs of the natural product icariin” (Whitehead Institute for Biomedical Research, priority 2018, dated 2022).
# Where two headings read alike, the source gives them in different places.
# Assays:
# [1] = tested on: SKMEL-5 cells; experiment: Cytotoxicity measured by resazurin, SKMEL-5; format: cell-based; conditions: Homo sapiens, SK-MEL-5, 0-10 μM
# Method: (§1) A general feature of compounds with promise as viable therapeutics is a lack of toxicity to human cells. To test the icariin analogs for this feature, each analog was assayed against a panel of five human cell lines for cytotoxicity. The five human cell lines represent various tissue types—normalized, untransformed epithelial cells derived from fetal foreskin, neuroblastoma, melanoma, prostate, and lung. A Western blot against PDE5 confirmed that all five cell lines express PDE5 protein (data not shown). Compounds 2-7 were assayed at concentrations ranging from 0-10 μM, ensuring that all compounds remained soluble. […]
# [2] = tested on: BJHTERT+ cells; experiment: Cytotoxicity measured by resazurin, BJHTERT+ (BjH+); format: cell-based; conditions: Homo sapiens, 0-10 μM
# Method: as §1
# [3] = tested on: H187 cells; experiment: Cytotoxicity measured by resazurin, H187; format: cell-based; conditions: Homo sapiens, NCI-H187, 0-10 μM
# Method: as §1
# [4] = tested on: panel of five human cell lines; experiment: Cytotoxicity against a panel of five human cell lines (resazurin); format: cell-based; conditions: 2 and 4: two out of five cell lines, 6: three out of five cell lines, 0-10 μM, read-out: IC50 of toxicity in the affected cell lines
# Method: as §1
# [5] = biological target: T1, purified recombinant human PDE5 (Homo sapiens, UniProt O76074); experiment: In vitro PDE5 inhibition assay (GMP production from cGMP, LC-MS); format: biochemical; conditions: for IC50: cGMP at 1/10 of Km
# T1 construct: purchased Abcam AB125581
# Method: To evaluate the nine icariin analogs, the IC50 of each analog, icariin, and sildenafil were measured in an in vitro PDE5 inhibition assay, which measures GMP production from cGMP by purified recombinant human PDE5. Table 1 summarizes the IC50 values obtained for the nine icariin analogs tested. Fold improved potency in Table 1 refers to fold change in IC50 compared to icariin.
# […]. […] PDE5 (purified recombinant human PDE5 purchased from Abcam, Product No. AB125581) was added to start the reaction. The reaction was at room temperature until approximately 10-15% of cGMP in uninhibited control reactions was consumed. Keeping cGMP concentration low and staying within a linear reaction ensured that the reaction remained within Michaelis-Menten model assumptions and that the IC50 could be approximated to the inhibition constant or Ki (as substrate concentration decreases, IC50 value approaches Ki value). The reaction was stopped with the addition of 0.1 M hydrochloric acid. The amount of GMP produced was measured by LC-MS.
# [6] = biological target: T2, human PDE5 (Homo sapiens, UniProt O76074); conditions: reported by Dell'Agli et al.; COS-7 lysate expressing human PDE5; cited from earlier work
# T2 construct: host or cells: COS-7 cells (lysate), transfected with human PDE5
# [7] = biological target: T2, human PDE5; conditions: competitive inhibitor of human PDE5; previous work; cited from earlier work
# [8] = tested on: cavernous smooth muscle cells; conditions: cavernous smooth muscle cells isolated from icariin-treated mice; cited from earlier work
# [9] = purified recombinant human PDE5
smiles,measurement,setting,value
COc1ccc(-c2oc3c(CC=C(C)C)c(O)cc(O)c3c(=O)c2OCCO)cc1 [Compound 6],IC50,[1],4.45 µM
same,IC50,[2],6.73 µM
same,IC50,[3],5.92 µM
same,IC50,[4],4000 to 7000 nM
COc1ccc(-c2oc3c(CC=C(C)C)c(O[C@@H]4O[C@H](CO)[C@@H](O)[C@H](O)[C@H]4O)cc(O)c3c(=O)c2OCCO)cc1 [Compound 3],Ki,"[5]; enzyme kinetics, purified recombinant human PDE5",36 ± 5 nM
same,IC50,[5]; [9],83 ± 10 nM
"COc1ccc(-c2oc3c(CC=C(C)C)c(O)cc(O)c3c(=O)c2O[C@@H]2O[C@H](C)[C@@H](O)[C@H](O)[C@@H]2O)cc1 [Compound 1, icariside II]",IC50,[6],160 nM
COc1ccc(-c2oc3c(CC=C(C)C)c(O[C@@H]4O[C@H](CO)[C@@H](O)[C@H](O)[C@H]4O)cc(O)c3c(=O)c2OCC(C)O)cc1 (stereo partly shown) [Compound 5],IC50,[5]; [9],500 ± 100 nM
COc1ccc(-c2oc3c(CC=C(C)C)c(O[C@@H]4O[C@H](CO)[C@@H](O)[C@H](O)[C@H]4O)cc(O)c3c(=O)c2O[C@@H]2O[C@@H](C)[C@H](O)[C@@H](O)[C@H]2O)cc1 [icariin],Field improved potency,[5]; fold change in IC50 compared to icariin,1
same,IC50,[5]; [9],6000 ± 1000 nM
same,IC50,[7],1000 to 6000 nM
same,cGMP levels,[8],increase cGMP levels
"COc1ccc(-c2oc3c(CC=C(C)C)c(O)cc(O)c3c(=O)c2O)cc1 [Compound 9, icaritin]",IC50,[5]; [9],1800 ± 800 nM
